Results published in patent US20090012088A1 (priority 2005, published 2009).
“Also recorded” adds a separate entry of the source. Like-named read-outs stand apart in the source and are kept apart here.

Experiments:
PARG = PARG (Bos taurus, UniProt O02776); assay: Inhibition of PARG activity in vitro (quantitation of free ADP-ribose with benzamidine, fluorescence); assay type: biochemical; design: purchased Biomol
Method: PARG assay: Production and purification of PAR. PARP-1 (20 units) is added to 900 μL of PARP assay buffer containing 1 mM NAD^+ and 22.5 μg activated DNA. This reaction was run at 37° C. for 30 min and stopped by the addition of 300 μL of cold 100% trichloroacetic acid. The proteins thus precipitated are collected by centrifugation at 18,000 g for 30 min at 4° C. After removal of the supernatant, 1 mL of 1 M NaOH and 100 mM EDTA are added to the pellet and incubated for 2 h at 37° C. to cleave the PAR from the PARP protein acceptor. Then 9 mL of PAR buffer A (250 mM ammonium acetate, 6 M guanidinium HCl, 10 mM EDTA, pH 9.0) is added to the PAR and applied to a PROSEP-PB (Millipore) phenyl boronate column that is pre-equilibrated with PAR buffer A. The flowthrough is then reapplied to the column to ensure that all PAR is bound. The column is then washed with 25 mL of PAR buffer A, followed by 10 mL of PAR buffer B (1 M ammonium acetate and 1 mM EDTA, pH 9.0). The bound PAR is eluted with 4 mL of water collected in 1-mL fractions. Fractions containing PAR are pooled and concentrated. The concentration, measured as monomer, is determined by measuring the absorbance at 258 nm. PAR has an extinction coefficient of 13,500 cm^−1 at 258 nm.
Inhibition of PARG Activity: To determine the PARG IC50 values of the compounds, 39 μL of a 25.6 μM solution of PAR in PARG assay (50 mM KCl, 50 mM KH2PO4, pH 7.2) buffer and 1 μL of the compounds at varying concentrations (in PARG assay buffer) are added into the wells of a 384-well plate. The reaction is initiated by the addition of 10 μL of PARG (Biomol) at a concentration of 1 ng/ml (in PARG assay buffer), bringing the final concentration to […] and 20 μM PAR with varying concentrations of compounds in a total volume of 50 μL. The plate is incubated for 20 min at room temperature. The amount of free ADP-ribose hemiacetals is determined by the addition of 5 μL of an aqueous 8.5M KOH solution and 5 μL of an aqueous 850 μM benzamidine solution to each well. The plate is then incubated for 10 min in an oven set at 110° C. The plate is allowed to cool and then read on a Criterion Analyst AD with an excitation of 360 nm and an emission of 445 nm.

[1] = test system: primary dopaminergic neurons from the midbrain of embryonic rats; assay: Protection of primary dopaminergic neurons from rotenone (TH/MAP2 immunocytochemistry); assay type: cell-based, rat; settings: 100 nM rotenone, 48 h, % TH+ of MAP2+ cells
Method: With in vitro PARG inhibition, cell permeability, a structure-activity-relationship, and protection in cell culture models established, the protective properties of PIP-1 are evaluated in cultures of primary dopaminergic neurons taken from the midbrain of embryonic rats. After isolation, these neurons are treated with 100 nM rotenone and a range of PIP-1 concentrations. Cells are stained with antibodies to MAP2 and tyrosine hydroxylase (TH) to determine the proportion of dopaminergic neurons remaining.
Preparation of Primary Mesencephalic Cultures: Primary Midbrain Cultures are prepared using a modified version of a previously described protocol^2. All of the procedures involving animal handling are reviewed and approved by the Purdue Animal Care and Use Committee. […]
Treatment of primary cultures with rotenone and PIP-1: AraC-treated primary cultures are incubated in fresh media for 72 h. […] After 48 h, the cells are analyzed immunocytochemically as described below.
Immunocytochemistry: Primary cells are fixed in 4% (w/v) paraformaldehyde in PBS for 30 min. […] MAP2- and TH-immunoreactive primary neurons are counted in 10 randomly chosen observation fields for each experimental condition using a Nikon TE2000-U inverted fluorescence microscope at a total magnification of 200×. The data are expressed as the percentage of MAP2-positive neurons that are also TH-positive. […]

PARG, sequence (O02776 whole entry): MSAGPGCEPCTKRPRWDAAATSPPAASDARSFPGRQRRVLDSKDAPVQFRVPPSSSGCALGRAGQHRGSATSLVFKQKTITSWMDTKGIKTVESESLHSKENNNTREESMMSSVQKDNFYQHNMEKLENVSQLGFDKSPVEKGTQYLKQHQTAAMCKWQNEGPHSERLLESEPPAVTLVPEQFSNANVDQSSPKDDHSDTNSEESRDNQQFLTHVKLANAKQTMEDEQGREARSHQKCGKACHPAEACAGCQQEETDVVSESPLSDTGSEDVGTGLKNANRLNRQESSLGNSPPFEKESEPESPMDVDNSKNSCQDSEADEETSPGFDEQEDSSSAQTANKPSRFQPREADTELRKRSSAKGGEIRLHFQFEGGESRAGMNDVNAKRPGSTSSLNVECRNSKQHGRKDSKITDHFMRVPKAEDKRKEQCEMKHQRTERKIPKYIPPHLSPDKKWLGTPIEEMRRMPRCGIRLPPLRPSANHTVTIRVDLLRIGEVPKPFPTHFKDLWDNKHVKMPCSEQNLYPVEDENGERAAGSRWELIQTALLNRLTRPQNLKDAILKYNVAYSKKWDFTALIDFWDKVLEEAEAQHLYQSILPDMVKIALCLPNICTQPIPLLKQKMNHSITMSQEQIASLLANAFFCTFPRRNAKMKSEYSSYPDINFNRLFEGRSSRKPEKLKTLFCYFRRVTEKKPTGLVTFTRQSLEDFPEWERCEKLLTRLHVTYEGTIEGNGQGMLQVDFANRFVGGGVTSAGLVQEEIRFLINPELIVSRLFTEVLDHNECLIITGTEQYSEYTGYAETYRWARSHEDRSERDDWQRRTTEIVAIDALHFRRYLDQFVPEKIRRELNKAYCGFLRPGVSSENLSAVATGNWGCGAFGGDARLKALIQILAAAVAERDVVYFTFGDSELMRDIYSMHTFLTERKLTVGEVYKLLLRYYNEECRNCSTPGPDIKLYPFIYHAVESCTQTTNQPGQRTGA

Structure (SMILES)	IC50 (PARG) [nM]	PARG inhibition in vitro (in words) (PARG)	Protection of dopaminergic neurons from rotenone induced cell death [1]	PARG inhibition in vitro (in words) (PARG; listed as analogue 5)
CN(C)c1cnn(-c2ccccc2)c(=O)c1N [PIP-1, 4-Amino-5-dimethylamino-2-phenyl-2H-pyridazin-3-one]	490	inhibits PARG in vitro in a dose-dependent manner; also recorded: inhibits PARG in vitro in a dose dependent manner; also recorded: inhibit PARG activity in vitro	considerable protection; also recorded: protects dopaminergic neurons from rotenone induced cell death	–
Nc1c(Cl)cnn(-c2ccccc2)c1=O [compound 5, 4-Amino-5-chloro-2-phenyl-2H-pyridazin-3-one]	–	inactive; also recorded: does not inhibit PARG	no protection; also recorded: does not significantly protect	do not inhibit NAD^+ depletion or PARG activity
